Measured values: PubChem BioAssay AID1159611
pIC50: −log10 of the molar value.

Target: Retinoic acid receptor RXR-alpha (Homo sapiens) (UniProt P19793)
Experiment: ligand displacement at retinoid X receptor alpha – biochemical, [3H]9-cis-retinoic acid, RXRalpha, dose response (AID 1159611)
Conditions: RXRalpha [3H]9-cis-retinoic acid displacement binding

Chain of Retinoic acid receptor RXR-alpha (Homo sapiens) (P19793 whole entry, looked up): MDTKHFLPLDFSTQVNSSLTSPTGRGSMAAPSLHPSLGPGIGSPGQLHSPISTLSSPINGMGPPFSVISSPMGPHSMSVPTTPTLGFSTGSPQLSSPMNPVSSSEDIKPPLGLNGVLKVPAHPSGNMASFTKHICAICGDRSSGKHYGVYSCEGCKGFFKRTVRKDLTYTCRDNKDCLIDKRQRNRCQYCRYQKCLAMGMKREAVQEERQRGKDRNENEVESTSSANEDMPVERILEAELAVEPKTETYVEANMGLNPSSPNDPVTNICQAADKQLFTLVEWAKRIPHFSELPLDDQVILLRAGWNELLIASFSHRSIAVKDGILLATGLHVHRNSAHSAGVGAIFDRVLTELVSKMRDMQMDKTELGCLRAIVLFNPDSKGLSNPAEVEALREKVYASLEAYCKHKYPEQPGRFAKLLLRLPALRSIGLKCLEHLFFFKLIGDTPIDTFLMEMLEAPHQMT

**Q.** With `CC1=C[C@H](O)CC(C)(C)[C@H]1/C=C/C(C)=C/C=C/C(C)=C/C=C/C=C(C)/C=C/C=C(C)/C=C/C1=C(C)C[C@@H](O)CC1(C)C` as the compound, how does the pIC50 read?
**A.** 5.24
